Experimental findings from patent US8637522B2, “Pyrazinone derivatives as insulin secretion stimulators, methods for obtaining them and use thereof for the treatment of diabetes” (Merck Patent GmbH, priority 2008, dated 2014) are described below.

Series [1] relates to diabetic N0STZ rat islets. Description: Insulin secretion in diabetic N0STZ rat islets. Format: cell-based. The following applies: 90 min, mean ± SEM. The procedure:
Insulin Secretion in Diabetic N0STZ Rat Islets. Materials and Methods. Islets Isolation and Treatments.
14±3 weeks non-fasted N0STZ (PORTHA et al., 1974) male rats (Charles Rivers-Domaine des Oncins, I'Arbresle, France) were anesthetised with sodium pentobarbital (Nembutal®: 45 mg/kg in 5 ml/kg administered intra peritoneally) and body temperature was maintained with a heat lamp.
Rat pancreatic islets of Langerhans were isolated from the pancreas of 8 rats by collagenase P (Boehringer, Meylan, France) digestion. Islets were purified by sedimentation in Hanks balanced salt solution [NaCl (137 mM); KCl (5.36 mM); MgSO4, 7H2O (0.81 mM); Na2HPO4, 12H2O (0.34 mM); KH2PO4 (0.44 mM); CaCl2, 2H2O (1.26 mM); NaHCO3 (4.17 mM)] followed by Ficoll gradient separation.
Islets were then hand-picked under stereoscopic microscope and batches of 3 islets were incubated for 90 minutes at 37° C. with continuous shaking under a humidified condition (95% O2, 5% CO2) in 1 ml of Krebs/Hepes pH 7 solution [NaCl (115 mM), NaHCO3 (24 mM), KCl (5 mM), MgCl2 (1 mM), CaCl2, 2H2O (1 mM), 0.2% of Bovine serum albumin (Fraction V, fatty acid free, Boehringer, Mannheim), 10 mM Hepes] containing the required glucose or compound concentration.
Compounds were dissolved in DMSO at 2.10-2M stock solutions. They were then diluted at the required concentration in Krebs/Hepes buffer containing the required glucose concentration.
At the end of incubation, media was collected and insulin levels were measured using ELISA (EUROBIO, Courtaboeuf, France).
Islets were hand-picked and incubated in the presence of increasing concentrations of compounds in the presence of glucose at 2.8 or 8 mM. At the end of incubation, media was collected and insulin levels were measured using ELISA method. Results are expressed as % of glucose control (2.8 or 8 mM) and represent Means±SEM.

Another series concerns INS-1 cells. The experiment in a line: Insulin secretion assay in INS-1 cells (glucose at 4.2 mM). It is filed as cell-based. The following applies: Rattus norvegicus, INS1, glucose 4.2 mM, 1 h incubation; for activity at 10 µM: compound 10 μM, read-out: Insulin secretion, % of ctrl at 10 μM; for activity at 50 µM: compound 50 μM, read-out: Insulin secretion, % of ctrl at 50 μM. As for the experimental part: Culture of Pancreatic INS-1 Cells
INS-1 cells were cultured in complete medium, RPMI 1640 containing 1 mM sodium pyruvate, 50 μM 2-mercaptoethanol, 2 mM glutamine, 10 mM HEPES, 100 IU/mL penicillin, and 100 μg/mL streptomycin (CM), supplemented with 10 mM glucose, and 10% (vol/vol) heat-inactivated fetal calf serum (FCS), as described by Asfari et al. (Endocrinology 130: 167-178, 1992).
INS-1 cells were plated and cultured in 48-well plates. After 2 days of culture, the medium was removed and cells were cultured for 24 h with a medium change to 5 mM glucose, 1% FCS. The cells were then washed with Krebs-Ringer Bicarbonate HEPES buffer (KRBH; 135 mM NaCl; 3.6 mM KCl; 5 mM NaHCO3; 0.5 mM NaH2PO4;
0.5 mM MgCl2; 1.5 mM CaCl2 and 10 mM HEPES; pH 7.4) 0.1% BSA containing 2.8 mM glucose and preincubated for 30 min at 37° C. in the same buffer. The cells were then washed twice and incubated for 1 h in KRBH 0.1% BSA containing 4.2 mM glucose and different concentrations of the tested molecule. Insulin concentration in the collected supernatants was measured with ELISA using rat insulin antibody (Insulin Rat Elit PLUS, cat. ref 10-1145-01).
Insulin secretion results are expressed in % of control (glucose 4.2 mM).
Insulin Secretion in INS-1 Cells (Glucose at 4.2 mM)

[2] abbreviates: glucose 2.8 mM, compound 10−4 M.

Usually melting point stands for the temperature, or range, at which the solid turns liquid. Take `CCCn1ccnc(S(=O)(=O)Cc2ccc(Cl)cc2)c1=O` [Example 10, 3-[(4-chlorobenzyl)sulfonyl]-1-propylpyrazin-2(1H)-one]: the melting point was 125 to 128 °C. Also, the “Insulin secretion, % of glucose control” value in series [1] (setting [2]) is given as 178 ± 7 % of glucose control. Also, in series [1] (glucose 8 mM, compound 10−4 M), the “Insulin secretion, % of glucose control” value is given as 203 ± 11 % of glucose control. The “Insulin secretion, % of glucose control” value in series [1] (glucose 8 mM, compound 10−5 M) is recorded as 133 ± 7 % of glucose control. Besides, the “Insulin secretion, % of glucose control” value in series [1] (glucose 8 mM, compound 10−6 M) is listed as 90 ± 4 % of glucose control. The “Insulin secretion, % of glucose control” value in series [1] (glucose 8 mM, compound 10−7 M) is 84 ± 7 % of glucose control. In addition, in the series with INS-1 cells, the activity at 10 µM is 155% and the activity at 50 µM came out at 331%.

As to `CCn1cc(Cl)nc(SCC(=O)Nc2ccccc2)c1=O` [Example 17, 2-[(6-chloro-4-ethyl-3-oxo-3,4-dihydropyrazin-2-yl)thio]-N-phenylacetamide], the melting point was 156 to 158 °C.

On to `CCn1ccnc(S(=O)(=O)Cc2ccc(Cl)cc2)c1=O` [Example 6-2, 3-[(4-chlorobenzyl)sulfonyl]-1-ethylpyrazin-2(1H)-one], for which the melting point fell in the range of 115 to 118 °C. For the same molecule, in the series on INS-1 cells, the activity at 10 µM came to 142% and the activity at 50 µM stood at 276%.

With `CCCn1ccnc(S(=O)(=O)Cc2ccc(C)cc2)c1=O` [Example 6-3, 3-[(4-methylbenzyl)sulfonyl]-1-propylpyrazin-2(1H)-one], the melting point was 128 to 130 °C. Moreover, the “Insulin secretion, % of glucose control” value in series [1] (setting [2]) was 121 ± 7 % of glucose control. Also, the “Insulin secretion, % of glucose control” value in series [1] (glucose 8 mM, compound 10−4 M) is on record as 271 ± 5 % of glucose control. Further, the “Insulin secretion, % of glucose control” value in series [1] (glucose 8 mM, compound 10−5 M) was 131 ± 5 % of glucose control. The “Insulin secretion, % of glucose control” value in series [1] (glucose 8 mM, compound 10−6 M) was 108 ± 5 % of glucose control. In series [1] (glucose 8 mM, compound 10−7 M), the “Insulin secretion, % of glucose control” value is recorded as 101 ± 6 % of glucose control. For the same molecule, in the series with INS-1 cells, the activity at 10 µM came out at 144% and the activity at 50 µM amounted to 207%.

Molecule `CCn1cc(Br)nc(S(=O)(=O)Cc2ccc(Cl)cc2)c1=O` [Example 13, 5-bromo-3-[(4-chlorobenzyl)sulfonyl]-1-ethylpyrazin-2(1H)-one] had a melting point of 145 to 147 °C.

As to `CCn1cc(Cl)nc(S(=O)(=O)CC(=O)Nc2ccccc2)c1=O` [Example 18, 2-[(6-chloro-4-ethyl-3-oxo-3,4-dihydropyrazin-2-yl)sulfonyl]-N-phenylacetamide], the melting point was in the range of 178 to 180 °C.

For the molecule `CCCCn1ccnc(S(=O)(=O)Cc2ccc(Cl)cc2)c1=O` [Example 10-5, 1-butyl-3-[(4-chlorobenzyl)sulfonyl]pyrazin-2(1H)-one], in the series on INS-1 cells, the activity at 10 µM is 153% and the activity at 50 µM is 261%.

For the molecule `CCCCn1ccnc(S(=O)(=O)Cc2cccc(C(F)(F)F)c2)c1=O` [Example 10-4, 1-butyl-3-[(3-trifluoromethylbenzyl)sulfonyl]pyrazin-2(1H)-one], in the series with INS-1 cells, the activity at 10 µM amounted to 187% and the activity at 50 µM is 272%.

`CCCCn1ccnc(S(=O)(=O)Cc2ccccc2F)c1=O` [Example 10-3, 1-butyl-3-[(2-fluorobenzyl)sulfonyl]pyrazin-2(1H)-one]: in the series on INS-1 cells, the activity at 10 µM was 108% and the activity at 50 µM came out at 236%.

Take `CCn1ccnc(S(=O)(=O)Cc2ccccc2)c1=O` [Example 6, 3-benzylsulfonyl-1-ethylpyrazin-2(1H)-one]: in the series with INS-1 cells, the activity at 10 µM came out at 128% and the activity at 50 µM stood at 184%.

Regarding `CCn1cc(-c2ccc(Cl)cc2)nc(S(=O)(=O)Cc2ccc(Cl)cc2)c1=O` [Example 14-2, 3-[(4-chlorobenzyl)sulfonyl]-5-(4-chlorophenyl)-1-ethylpyrazin-2(1H)-one], the activity at 10 µM with INS-1 cells came out at 181%.

Molecule `CCn1ccnc(S(=O)(=O)CCOc2ccc(OC)cc2)c1=O` [Example 10-7, 1-ethyl-3-{[2-(4-methoxyphenoxy)ethyl]sulfonyl}pyrazin-2(1H)-one] showed a melting point of 100 to 103 °C.

Consider `CCn1cc(Cl)nc(S(=O)(=O)CC(=O)N2CCCCC2)c1=O` [Example 18-2, 5-chloro-1-ethyl-3-[(2-oxo-2-piperidin-1-ylethyl)sulfonyl]pyrazin-2(1H)-one], for which, in the series with INS-1 cells, the activity at 10 µM was found to be 159% and the activity at 50 µM was determined as 213%.

On to `CCCn1ccnc(S(=O)(=O)CCc2ccc(Cl)cc2)c1=O` [Example 10-6], for which, in the series with INS-1 cells, the activity at 10 µM is 127% and the activity at 50 µM worked out at 180%.

The molecule `CCn1ccnc(S(=O)(=O)Cc2ccc(Br)cc2)c1=O` [Example 6-6, 1-ethyl-3-[(4-bromobenzyl)sulfonyl]pyrazin-2(1H)-one] came in with a melting point of 135 to 138 °C. In addition, in the series with INS-1 cells, the activity at 10 µM amounted to 164% and the activity at 50 µM amounted to 362%.

In turn, `CCCn1ccnc(S(=O)(=O)Cc2ccccc2)c1=O` [Example 6-5, 3-(benzylsulfonyl)-1-propylpyrazin-2(1H)-one] had a melting point of 133 to 135 °C.

In turn, `CCn1cc(-c2ccccc2)nc(S(=O)(=O)Cc2ccc(Cl)cc2)c1=O` [Example 14, 3-[(4-chlorobenzyl)sulfonyl]-1-ethyl-5-phenylpyrazin-2(1H)-one] registered a melting point of 146 to 148 °C.

`CCCn1ccnc(S(=O)(=O)Cc2ccc(F)cc2)c1=O` [Example 6-4, 3-[(4-fluorobenzyl)sulfonyl]-1-propylpyrazin-2(1H)-one] displayed a melting point of 123 to 125 °C. Besides, in the series on INS-1 cells, the activity at 10 µM was found to be 142% and the activity at 50 µM amounted to 203%.
